Patent publication US5773442A, “Benzamidine derivatives and pharmaceutical composition containing them” (Yamanouchi Pharmaceutical Co., Ltd., priority 1995, dated 1998)

Experiments:
[1] = test system: platelet aggregation (PRP; ADP and collagen as triggers); assay: Ex vivo platelet aggregation-inhibiting activity in cynomolgus monkeys; conditions: 3 mg/kg via stomach tube, 20 μM ADP and 10 μg/ml collagen, mean ± SEM (n = 3)
Protocol: Ex vivo platelet aggregation-inhibiting activity in cynomolgus monkeys:
Cynomolgus monkeys that had been lightly anesthetized by intramuscular administration of ketamine hydrochloride were fixed on a work-bench, and a sample compound of the present invention as dissolved in 2 ml of […] was forcedly administered into its stomach via a stomach tube at a dose of 3 mg/kg. Before the administration and after the administration at a predetermined period of time, 3 ml (containing 1/10 times by volume of sodium citrate) of the blood was collected from the animal through its femoral vein. From the blood was obtained platelet-rich-plasma (PRP) of 300,000/μl, according to the De Marco et al's method (see J. clin. Invest., 77, 1272-1277, 1988). The PRP was adjusted at 3×10^8 /ml with an automatic blood cell counter (MEK-5158 Model, produced by Nihon Koden Co.) before use. Added thereto were 20 μM of ADP and 10 μg/ml of bovine tendon-derived collagen (produced by Niko Bioscience Co.) as triggers, whereby the aggregation of the platelets was caused in the PRP. The degree of the aggregation of the platelets was measured with a platelet aggregation meter (NBS Hematracer 801, produced by Niko Bioscience Co.). The platelet aggregation-inhibiting activity of the tested compound was represented by the inhibition percentage (%) relative to the maximum aggregation percentage of each animal before the addition of the compound thereto.

GPIIb/IIIa = molecular target: T1, GPIIb/IIIa (Homo sapiens, UniProt P05106+P08514); assay: Bonding of fibrinogen to pure GPIIb/IIIa; format: binding; conditions: biotinated fibrinogen, 37° C., 3 hours
T1 construct: GPIIb/IIIa was purified according to a Fitzgerald et al's method; from tissue; host or cells: platelets (human, inferred from the cited Fitzgerald method)
T1 sequence (P08514 32-887 limits assumed): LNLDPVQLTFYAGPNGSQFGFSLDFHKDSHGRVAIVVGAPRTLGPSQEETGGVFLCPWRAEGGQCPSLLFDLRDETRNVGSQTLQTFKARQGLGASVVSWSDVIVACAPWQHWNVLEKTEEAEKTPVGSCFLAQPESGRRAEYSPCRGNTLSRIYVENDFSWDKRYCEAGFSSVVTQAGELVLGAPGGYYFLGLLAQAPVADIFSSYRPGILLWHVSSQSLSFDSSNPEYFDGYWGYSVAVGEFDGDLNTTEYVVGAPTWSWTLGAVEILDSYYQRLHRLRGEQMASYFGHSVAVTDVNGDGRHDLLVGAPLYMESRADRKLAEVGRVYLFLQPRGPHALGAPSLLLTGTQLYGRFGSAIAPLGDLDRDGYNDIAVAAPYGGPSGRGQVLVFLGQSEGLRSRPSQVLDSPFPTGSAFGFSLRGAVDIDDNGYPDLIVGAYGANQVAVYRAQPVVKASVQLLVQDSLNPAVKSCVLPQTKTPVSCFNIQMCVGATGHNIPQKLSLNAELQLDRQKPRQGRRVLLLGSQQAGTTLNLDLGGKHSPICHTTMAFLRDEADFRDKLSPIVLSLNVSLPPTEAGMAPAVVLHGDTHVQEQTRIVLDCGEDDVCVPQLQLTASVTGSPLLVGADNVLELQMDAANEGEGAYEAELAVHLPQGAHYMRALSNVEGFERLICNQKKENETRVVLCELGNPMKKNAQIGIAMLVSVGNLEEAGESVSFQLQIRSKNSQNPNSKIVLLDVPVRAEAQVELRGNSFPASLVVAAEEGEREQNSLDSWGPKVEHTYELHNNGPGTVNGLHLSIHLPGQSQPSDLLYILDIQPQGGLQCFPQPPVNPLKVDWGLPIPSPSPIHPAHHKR
T1 sequence (P08514 891-1039 limits assumed): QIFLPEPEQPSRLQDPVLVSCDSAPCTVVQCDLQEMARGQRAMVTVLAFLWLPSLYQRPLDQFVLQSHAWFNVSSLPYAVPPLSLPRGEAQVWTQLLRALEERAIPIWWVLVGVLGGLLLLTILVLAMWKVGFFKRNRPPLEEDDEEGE
T1 sequence (P05106 27-788): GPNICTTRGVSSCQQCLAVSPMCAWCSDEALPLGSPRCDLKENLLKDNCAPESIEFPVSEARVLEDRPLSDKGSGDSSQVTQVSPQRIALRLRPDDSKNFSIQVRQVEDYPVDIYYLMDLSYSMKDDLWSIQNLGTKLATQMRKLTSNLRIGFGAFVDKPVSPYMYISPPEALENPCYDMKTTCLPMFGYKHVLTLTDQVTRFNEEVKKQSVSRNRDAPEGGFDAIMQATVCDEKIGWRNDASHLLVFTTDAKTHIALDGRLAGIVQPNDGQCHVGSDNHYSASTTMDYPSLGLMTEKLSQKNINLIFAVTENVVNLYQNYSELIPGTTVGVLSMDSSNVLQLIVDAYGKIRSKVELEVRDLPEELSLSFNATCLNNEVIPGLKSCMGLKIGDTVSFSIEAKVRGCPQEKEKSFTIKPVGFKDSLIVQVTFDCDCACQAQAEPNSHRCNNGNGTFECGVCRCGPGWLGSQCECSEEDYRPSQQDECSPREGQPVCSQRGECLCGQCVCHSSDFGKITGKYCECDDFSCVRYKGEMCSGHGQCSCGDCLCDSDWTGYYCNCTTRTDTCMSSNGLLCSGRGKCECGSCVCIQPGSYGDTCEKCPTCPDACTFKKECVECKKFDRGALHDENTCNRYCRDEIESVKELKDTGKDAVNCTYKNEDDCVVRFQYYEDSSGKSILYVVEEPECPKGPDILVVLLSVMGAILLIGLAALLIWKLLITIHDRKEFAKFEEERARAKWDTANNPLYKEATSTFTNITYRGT
Protocol: Bonding of fibrinogen to pure GPIIb/IIIa: GPIIb/IIIa was purified according to a Fitzgerald et al's method. Fibrinogen was biotinated with NHS-LC-Biotin (manufactured by Pierce Co.). The pure GPIIb/IIIa was added to TBS (20 mM Tris-HCl, pH 7.4, 150 mM NaCl, 1 mM CaCl2, 1 mM MgCl2) at one μg/ml. 100 μl of the resulting solution was put into a 96-well plate (MaxiSorp™, manufactured by Nunc Co.) and left at 4° C. overnight. […] After the solution was removed, a sample compound to be tested and the biotinated fibrinogen were added to the plate and reacted at 37° C. for 3 hours. […] This was washed three times with 300 μl of T-TBS.

| Structure (SMILES) | platelet aggregation-inhibition ratio (%), 2 hours after [1] | platelet aggregation-inhibition ratio (%), 4 hours after [1] | platelet aggregation-inhibition ratio (%), 6 hours after [1] | platelet aggregation-inhibition ratio (%), 9 hours after [1] | platelet aggregation-inhibition ratio (%), 12 hours after [1] | platelet aggregation-inhibition ratio (%), 24 hours after [1] | IC50 (GPIIb/IIIa) |
| --- | --- | --- | --- | --- | --- | --- | --- |
| Cl.N=C(N)c1ccc(N2CCN(C3CCN(CC(=O)O)CC3CC(=O)O)CC2)cc1 (centres unmarked) [Example 8, 4-[4-(4-Amidinophenyl)-1-piperazinyl]-1,3-piperidinediacetic acid hydrochloride] | 57 ± 20% | 98 ± 1.0% | 98 ± 1.2% | 81 ± 19% | 100 ± 0% | 24 ± 9.1% | 8.4 nM |
| N=C(N)c1ccc(N2CC(=O)N(C3CCN(CC(=O)O)CC3)CC2=O)cc1 [Example 16, 4-[4-(4-amidinophenyl)-2,5-dioxo-1-piperazinyl]-1-piperidineacetic acid] | – | – | – | – | – | – | 10.4 nM |
| N=C(N)c1ccc(N2CCN(C3CCN(CC(=O)O)CC3)CC2=O)cc1 [Example 18, 4-[4-(4-Amidinophenyl)-3-oxo-1-piperazinyl]-1-piperidineacetic acid] | 86 ± 8.4% | 98 ± 0.9% | 75 ± 25% | 97 ± 1.7% | 99 ± 0.7% | 34 ± 11% | – |
